Assays:
[1] = target: T1, PSMA (Homo sapiens, UniProt Q04609); test: In vitro competitive binding assay to determine IC50 to PSMA; conditions: LNCaP cells, [125I]MIP-1095 radioligand, 37° C. 1 h, mean±SD (n=4); read-out: PSMA binding affinities of cold ligands, IC50
T1 construct: 100 μL of freshly harvested PSMA cells; endogenous in cells; host or cells: 'PSMA cells' in the method
Experimental: In Vitro Competitive Binding Assay to Determine IC50 to PSMA
In order to determine the binding affinity, in vitro competitive binding assays were performed. The LNCaP cells were incubated with 150,000 cpm of [^125I]MIP-1095 in the presence of 10 different concentrations of competing drugs. After incubation at 37° C. for 1 h, the bound and free radioactivity were separated by vacuum filtration through GF/B filter paper using a Brandel M-24R cell harvester followed by washing twice. Non-specific binding was defined with 10 μM PMPA. The cell bound radioactivity was measured with a gamma counter, 2470 Wizard^2 (Perkin-Elmer, IL). The IC50 values were calculated by fitting the data using a nonlinear regression algorithm (GraphPad Software).
The PSMA binding affinities were determined in a competitive binding assay using LNCaP human prostate carcinoma cells and the known high affinity PSMA ligand, [^125I]MIP-1095 as the radioligand. Data are expressed as mean±SD (n=4).

[2] = target: T1, PSMA; test: In vitro binding signals of 68Ga labeled ligands in LNCaP tumor homogenates; conditions: Ga-68 radiolabeled ligands; for Total binding (TB): 37° C. 60 min; for Nonspecific binding (NSB): with 1a (PSMA11) 10 μM
[3] = tested on: PSMA-expressing LNCaP cells; test: Cell binding and internalization; type: cell-based, human; conditions: 37° C.
Experimental: The cellular uptake and internalization kinetics of the [^68Ga]1a, [^68Ga]5a and [^68Ga]5b were determined using PSMA-expressing LNCaP cells. Furthermore, to be able to discriminate between total cellular activity (sum of membrane-associated and internalized activity) and internalized activity, all incubations were followed by a washing step with mild acid at 4° C. to remove specifically cell-surface bound radioligand by displacement.
LNCaP cells (in 6-well plates in triplicates) were incubated in RPMI-1640 medium with [^68Ga]1a, [^68Ga]5a or [^68Ga]5b for 0-2 h at 37° C. At the indicated time, the medium was removed and the cells were washed twice and then incubated with a mild acid buffer (50 mM glycine, 150 mM NaCl, pH 3.0) at 4° C. for 5 min. The supernatant (containing cell surface-bound radioactivity) was pooled and the cell pellet (containing internalized radioactivity) was collected with filter paper and then radioactivity in supernatant and cell pellet was counted on a gamma counter.
LNCaP cells were incubated with [^68Ga]1a, [^68Ga]5a and [^68Ga]5b for up to 2 h at 37° C. to determine whether the compound is internalized by endocytosis. The cells were then washed with a mild acid buffer to remove extracellularly bound compound.
Non specific binding (NSB) was evaluated by blocking with 20 μM PMPA. Specificity of cell uptake (SB) was calculated by subtracting the respective signals resulting from PMPA blocking. Values are expressed as % of applied radioactivity bound to 10^6 cells.

[4] = tested on: LNCaP tumor bearing nude mice; test: Biodistribution of [68Ga]labeled ligand in PSMA positive tumor bearing nude mice; type: in vivo, mouse; conditions: 1 h post-injection, i.v., n = 3
Experimental: In a dish contained 5×10^6 cells of LNCaP in 50% Matrigel (Becton Dickinson, Heidelberg, Germany) were subcutaneously inoculated into the left shoulder of male 5- to 6-week-old CD-1 nu/nu mice (Charles River Laboratories). The tumors were allowed to grow for 8 weeks until approximately 0.5 cm^3 in size.
The ^68Ga-radiolabeled compounds were injected via tail vein (25 μCi per mouse; 0.1-0.2 nmol). At 1 h after injection, the animals were sacrificed. Organs of interest were dissected and weighed. The radioactivity was measured with a gamma counter and calculated as % ID/g.

[5] = Biodistribution of radiotracers in normal mice; type: in vivo, mouse; conditions: for Biodistribution: Blood / Biodistribution: Bone / Biodistribution: Brain / Biodistribution: Heart / Biodistribution: Kidney / Biodistribution: Liver / Biodistribution: Lung / Biodistribution: Muscle / Biodistribution: Pancreas / Biodistribution: Skin / Biodistribution: Spleen: normal male mice
Experimental: Normal CD-1 male mice were injected via the tail vein with 35 μCi of [^68Ga] radiotracers (0.2 nmole of ligand). […] All organs were removed and blood was also collected. Each organ was weighed, and the tissue radioactivity was measured with an automated gamma counter (Wizard, Perkin Elmer). The % ID/g was calculated by comparison with samples of a standard dilution of the initial dose. All measurements were corrected for decay.

T1 sequence (Q04609 whole entry): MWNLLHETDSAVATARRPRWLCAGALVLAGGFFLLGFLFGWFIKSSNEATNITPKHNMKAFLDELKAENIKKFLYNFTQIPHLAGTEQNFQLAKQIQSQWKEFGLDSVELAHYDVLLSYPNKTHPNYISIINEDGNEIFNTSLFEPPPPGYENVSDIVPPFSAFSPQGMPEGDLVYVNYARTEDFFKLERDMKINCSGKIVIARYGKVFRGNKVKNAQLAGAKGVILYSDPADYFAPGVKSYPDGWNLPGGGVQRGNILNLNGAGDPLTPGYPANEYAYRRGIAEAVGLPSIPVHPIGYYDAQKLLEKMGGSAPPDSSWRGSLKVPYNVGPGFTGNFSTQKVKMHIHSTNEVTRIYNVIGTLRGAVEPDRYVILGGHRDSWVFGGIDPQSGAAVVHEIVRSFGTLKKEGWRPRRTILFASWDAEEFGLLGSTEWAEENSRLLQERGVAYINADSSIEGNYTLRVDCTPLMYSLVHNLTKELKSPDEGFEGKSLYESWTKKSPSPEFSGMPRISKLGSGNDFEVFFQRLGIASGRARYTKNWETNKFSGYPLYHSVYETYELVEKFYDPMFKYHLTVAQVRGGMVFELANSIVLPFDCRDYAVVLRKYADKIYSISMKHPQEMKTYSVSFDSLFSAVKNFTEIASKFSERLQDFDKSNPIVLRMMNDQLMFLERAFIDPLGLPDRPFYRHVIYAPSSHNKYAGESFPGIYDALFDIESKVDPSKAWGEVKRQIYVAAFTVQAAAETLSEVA

O=C(O)CCc1ccc(O)c(CN(CCN(CC(=O)O)Cc2cc(CCC(=O)NCCCCCC(=O)NCCCC[C@H](NC(=O)N[C@@H](CCC(=O)O)C(=O)O)C(=O)O)ccc2O)CC(=O)O)c1 [Compound 1a, Glu-NH—CO—NH-Lys(Ahx)-HBED-CC, reference compound]
IC50 [1]: 16.6 ± 2.4 nM
Specific binding (SB) SB = TB − NSB [2]: 12.3
Total binding (TB) [2]: 13.5
Nonspecific binding (NSB) [2]: 1.2

O=C(O)CCc1ccc(O)c(CN(CCN(CC(=O)O)Cc2cc(CCC(=O)NCC(=O)N[C@@H](Cc3ccc(OCC(=O)N[C@@H](Cc4ccccc4)C(=O)NCCCC[C@H](NC(=O)N[C@@H](CCC(=O)O)C(=O)O)C(=O)O)cc3)C(=O)O)ccc2O)CC(=O)O)c1 [Compound 5b, (4S,11S,15S)-4-Benzyl-1-(4-((S)-2-carboxy-2-(2-(3-(3-(((2-((5-(2-carboxyethyl)-2-hydroxybenzyl)(carboxymethyl)amino)ethyl)(carboxymethyl)amino)methyl)-4-hydroxyphenyl)propanamido)acetamido)ethyl)phenoxy)-2,5,13-trioxo-3,6,12,14-tetraazaheptadecane-11,15,17-tricarboxylic acid.]
Specific binding (SB) SB = TB − NSB [2]: 10.54
Total binding (TB) [2]: 10.73
Nonspecific binding (NSB) [2]: 0.18

O=C(O)CC[C@H](NC(=O)N[C@@H](CCCCNC(=O)[C@H](Cc1ccccc1)NC(=O)COc1ccc(C[C@H](NC(=O)CNC(=O)c2cccc(I)c2)C(=O)O)cc1)C(=O)O)C(=O)O [Compound 5c, (4S,11S,15S)-4-Benzyl-1-(4-((S)-2-carboxy-2-(2-(3-iodobenzamido)acetamido)ethyl)phenoxy)-2,5,13-trioxo-3,6,12,14-tetraazaheptadecane-11,15,17-tricarboxylic acid]
IC50 [1]: 5 ± 1.9 nM

O=C(O)CC[C@H](NC(=O)N[C@@H](CCCCNC(=O)[C@H](Cc1ccccc1)NC(=O)COc1ccc(C[C@H](NC(=O)CNC(=O)c2ccccc2I)C(=O)O)cc1)C(=O)O)C(=O)O [Compound 5d, (4S,11S,15S)-4-Benzyl-1-(4-((S)-2-carboxy-2-(2-(2-iodobenzamido)acetamido)ethyl)phenoxy)-2,5,13-trioxo-3,6,12,14-tetraazaheptadecane-11,15,17-tricarboxylic acid]
IC50 [1]: 5.3 ± 2.2 nM

O=C(O)CC[C@H](NC(=O)N[C@@H](CCCCNC(=O)[C@H](Cc1ccccc1)NC(=O)COc1ccc(C[C@H](NC(=O)CNC(=O)c2ccc(F)nc2)C(=O)O)cc1)C(=O)O)C(=O)O [Compound 5e]
IC50 [1]: 6 ± 1.8 nM

O=C(O)CC[C@H](NC(=O)N[C@@H](CCCCNC(=O)Nc1ccc(I)cc1)C(=O)O)C(=O)O [MIP-1095, reference compound]
IC50 [1]: 4.6 ± 1.4 nM

O=C(O)CC[C@H](NC(=O)N[C@@H](CCCCNC(=O)[C@H](Cc1ccccc1)NC(=O)COc1ccc(C[C@H](NC(=O)CNC(=O)C[N+]23CC[N+]45CC[N+]6(CC(=O)O)CC[N+]7(CC2)CC(=O)[O][68Ga-3]6347[O]C(=O)C5)C(=O)O)cc1)C(=O)O)C(=O)O (stereo partly shown) [[^68Ga]5a]
Cell surface binding activity ([3]; 5 min): 1.67 ± 0.24 % ID/10^6 cells
Internalized activity ([3]; 5 min): 0.21 ± 0.04 % ID/10^6 cells
Cell surface binding activity ([3]; 15 min): 1.92 ± 0.24 % ID/10^6 cells
Internalized activity ([3]; 15 min): 1.14 ± 0.21 % ID/10^6 cells
Cell surface binding activity ([3]; 30 min): 1.96 ± 0.27 % ID/10^6 cells
Internalized activity ([3]; 30 min): 2.55 ± 0.42 % ID/10^6 cells
Cell surface binding activity ([3]; 60 min): 1.89 ± 0.13 % ID/10^6 cells
Internalized activity ([3]; 60 min): 3.70 ± 0.44 % ID/10^6 cells
Cell surface binding activity ([3]; 90 min): 2.33 ± 0.01 % ID/10^6 cells
Internalized activity ([3]; 90 min): 5.40 ± 0.13 % ID/10^6 cells
Cell surface binding activity ([3]; 120 min): 2.03 ± 0.23 % ID/10^6 cells
Internalized activity ([3]; 120 min): 5.43 ± 1.20 % ID/10^6 cells
Organ distribution: Blood [4]: 0.36 ± 0.05 % dose/g
Organ distribution: Bone [4]: 0.11 ± 0.04 % dose/g
Organ distribution: Brain [4]: 0.03 ± 0.01 % dose/g
Organ distribution: Heart [4]: 0.19 ± 0.04 % dose/g
Organ distribution: Liver [4]: 0.36 ± 0.10 % dose/g
Organ distribution: Lung [4]: 0.46 ± 0.13 % dose/g
Organ distribution: Muscle [4]: 0.21 ± 0.15 % dose/g
Organ distribution: Pancreas [4]: 0.20 ± 0.05 % dose/g
Organ distribution: Skin [4]: 0.33 ± 0.17 % dose/g
Organ distribution: Spleen [4]: 0.70 ± 0.38 % dose/g

O=C(O)CC[C@H](NC(=O)N[C@@H](CCCCNC(=O)CCCCCNC(=O)CCc1ccc(O)c(CN(CCN(CC(=O)O)Cc2cc(CCC(=O)NCCNC(=O)CN3CCN4CCN5CCN(CC3)CC(=O)[O][177Lu]([O]C(=O)C4)[O]C(=O)C5)ccc2O)CC(=O)O)c1)C(=O)O)C(=O)O [[^177Lu]1g]
Biodistribution: Blood ([5]; 0.5 hr): 0.64 ± 0.22 % dose/g
Biodistribution: Bone ([5]; 0.5 hr): 0.22 ± 0.05 % dose/g
Biodistribution: Brain ([5]; 0.5 hr): 0.03 ± 0.01 % dose/g
Biodistribution: Heart ([5]; 0.5 hr): 0.28 ± 0.09 % dose/g
Biodistribution: Kidney ([5]; 0.5 hr): 40.6 ± 10.5 % dose/g
Biodistribution: Liver ([5]; 0.5 hr): 0.23 ± 0.02 % dose/g
Biodistribution: Lung ([5]; 0.5 hr): 0.80 ± 0.38 % dose/g
Biodistribution: Muscle ([5]; 0.5 hr): 0.27 ± 0.07 % dose/g
Biodistribution: Pancreas ([5]; 0.5 hr): 0.40 ± 0.07 % dose/g
Biodistribution: Skin ([5]; 0.5 hr): 0.56 ± 0.12 % dose/g
Biodistribution: Spleen ([5]; 0.5 hr): 0.78 ± 0.37 % dose/g
Biodistribution: Blood ([5]; 1 hr): 0.15 ± 0.05 % dose/g
Biodistribution: Bone ([5]; 1 hr): 0.11 ± 0.01 % dose/g
Biodistribution: Brain ([5]; 1 hr): 0.01 ± 0.00 % dose/g
Biodistribution: Heart ([5]; 1 hr): 0.14 ± 0.01 % dose/g
Biodistribution: Kidney ([5]; 1 hr): 30.3 ± 3.50 % dose/g
Biodistribution: Liver ([5]; 1 hr): 0.12 ± 0.02 % dose/g
Biodistribution: Lung ([5]; 1 hr): 0.45 ± 0.13 % dose/g
Biodistribution: Muscle ([5]; 1 hr): 0.11 ± 0.03 % dose/g
Biodistribution: Pancreas ([5]; 1 hr): 0.32 ± 0.183 % dose/g
Biodistribution: Skin ([5]; 1 hr): 0.21 ± 0.04 % dose/g
Biodistribution: Spleen ([5]; 1 hr): 0.92 ± 0.24 % dose/g
Biodistribution: Blood ([5]; 6 hr): 0.01 ± 0.00 % dose/g
Biodistribution: Bone ([5]; 6 hr): 0.12 ± 0.01 % dose/g
Biodistribution: Brain ([5]; 6 hr): 0.01 ± 0.00 % dose/g
Biodistribution: Heart ([5]; 6 hr): 0.02 ± 0.01 % dose/g
Biodistribution: Kidney ([5]; 6 hr): 17.8 ± 4.07 % dose/g
Biodistribution: Liver ([5]; 6 hr): 0.07 ± 0.01 % dose/g
Biodistribution: Lung ([5]; 6 hr): 0.11 ± 0.00 % dose/g
Biodistribution: Muscle ([5]; 6 hr): 0.03 ± 0.00 % dose/g
Biodistribution: Pancreas ([5]; 6 hr): 0.08 ± 0.03 % dose/g
Biodistribution: Skin ([5]; 6 hr): 0.06 ± 0.00 % dose/g
Biodistribution: Spleen ([5]; 6 hr): 0.28 ± 0.08 % dose/g
Biodistribution: Blood ([5]; 24 hr): 0.01 ± 0.00 % dose/g
Biodistribution: Bone ([5]; 24 hr): 0.12 ± 0.01 % dose/g
Biodistribution: Brain ([5]; 24 hr): 0.01 ± 0.00 % dose/g
Biodistribution: Heart ([5]; 24 hr): 0.01 ± 0.00 % dose/g
Biodistribution: Kidney ([5]; 24 hr): 4.02 ± 1.34 % dose/g
Biodistribution: Liver ([5]; 24 hr): 0.03 ± 0.00 % dose/g
Biodistribution: Lung ([5]; 24 hr): 0.03 ± 0.01 % dose/g
Biodistribution: Muscle ([5]; 24 hr): 0.01 ± 0.00 % dose/g
Biodistribution: Pancreas ([5]; 24 hr): 0.02 ± 0.01 % dose/g
Biodistribution: Skin ([5]; 24 hr): 0.04 ± 0.01 % dose/g
Biodistribution: Spleen ([5]; 24 hr): 0.04 ± 0.00 % dose/g
Initial uptakes in the kidneys, in words ([5]; normal mice): comparable to that of [^68Ga]1g

O=C(O)CCc1ccc2c(c1)C[N+]13CC[N+]45CC(=O)[O][Ga-3]14([O]C(=O)C3)([O]2)[O]c1ccc(CCC(=O)NCC(=O)N[C@@H](Cc2ccc(OCC(=O)N[C@@H](Cc3ccccc3)C(=O)NCCCC[C@H](NC(=O)N[C@@H](CCC(=O)O)C(=O)O)C(=O)O)cc2)C(=O)O)cc1C5 (stereo partly shown) [[^natGa]5b]
IC50 [1]: 16.5 ± 3.1 nM

Source: patent publication US10688200B2, “Urea-based prostate specific membrane antigen (PSMA) inhibitors for imaging and therapy” (Five Eleven Pharma Inc., priority 2015, dated 2020)
